Results reported in patent publication US20200179335A1, “TREATMENT OF DISEASES ASSOCIATED WITH A DYSREGULATION OF THE mTOR PATHWAY” (BIOCODEX, priority 2017, published 2020).

Columns and labels:
[1] = system: ribosomal protein S6 (downstream effector of the mTOR pathway); assay: Western blot of S6 protein phosphorylation in hippocampus of pentylenetetrazol-treated rats; format: in vivo, rat; conditions: for ratio of phosphorylated S6 related to total S6 protein: hippocampus of adult male Sprague-Dawley rats, pretreatment i.p. (stiripentol 300 mg/kg or wortmannin 2.4 mg/kg) 30 min before pentylenetetrazol 80 mg/kg s.c., sacrifice 30 min after PTZ, Veh-PTZ control 0.79
Procedure: (§1) The mTOR pathway has been studied at two levels (i) an upstream level of regulation with the P13K-Akt, a modulator of the mTOR pathway and (ii) a downstream level with the ribosomal protein S6, the substrate of the S6 kinase, a direct downstream effector of the mTOR pathway. Adult male Sprague-Dawley rats (Janvier, 220-250 g, n=24, 7 weeks old) were used in this study. They were housed 2 per cage (Techniplast ref. 1291), and maintained in a 12 h light/dark cycle (light ON at 7 AM). Food and water were provided ad libitum. The experiments were conducted in accordance with the European Recommendations (directive 2010/63/EU) for the use and care of laboratory animals. The experimental protocol has been approved by the ethics committee. Pentylenetetrazol (batch MKB[…], SIGMA), 80 mg/kg in 0.9% NaCl was administered subcutaneously in an injection volume of 5 mL/kg. Wortmannin (Sigma), 2.4 mg/kg in DMSO 10% v/v in 0.9% NaCl or Stiripentol (Biocodex), 300 mg/kg in tween80 5% v/v, were injected intraperitoneally (10 mL/kg) 30 min before pentylenetetrazol administration. […] The protein concentration of each sample was determined by a BCA protein assay. […] Signals were detected by enzyme chemiluminescence (Vilber Lourmat Fusion FX5 system) and quantitatively analyzed with the Bio-1 D software (Vilber Lourmat, France). […] Each membrane was also stripped (RestoreTM western blot stripping buffer, Thermoscientific) and reprobed to detect beta-actin protein levels, a control for the total quantity of protein deposited. […] The difference between groups was assessed by a two-way ANOVA followed by a Holm-Sidak multiple comparison (factor pretreatment=tween or STP, factor treatment=NaCl or PTZ). The effect of wortmaninn was assessed by a t-test comparison between tween-pentylenetetrazol (n=5) versus wortmannin-pentylenetetrazol groups (n=3).

[2] = system: Akt (P13K-Akt, upstream modulator of the mTOR pathway); assay: Western blot of Akt phosphorylation in hippocampus of pentylenetetrazol-treated rats; format: in vivo, rat; conditions: for ratio of phosphorylated Akt related to total Akt: hippocampus of adult male Sprague-Dawley rats, pretreatment i.p. (stiripentol 300 mg/kg or wortmannin 2.4 mg/kg) 30 min before pentylenetetrazol 80 mg/kg s.c., sacrifice 30 min after PTZ, tween-PTZ control 1.81
Procedure: as §1

[3] = hippocampus, rats pretreated i.p. 30 min before pentylenetetrazol 80 mg/kg s.c.

## CC(C)(C)C(O)/C=C/c1ccc2c(c1)OCO2 (racemic) [stiripentol, 1-penten-3-ol, 1-(1,3-benzodioxol)-4,4-dimethyl]
[1]
  ratio of phosphorylated S6 related to total S6 protein: 0.36
[1]; [3]
  band of phosphorylated S6 protein in western blot (FIG. 3): No band was visible
[2]
  ratio of phosphorylated Akt related to total Akt: 2.46
[2]; [3]
  band of phosphorylated Akt in western blot (FIG. 1): strong band

## COC[C@H]1OC(=O)c2coc3c2[C@@]1(C)C1=C(C3=O)[C@@H]2CCC(=O)[C@@]2(C)C[C@H]1OC(C)=O [wortmannin]
[1]
  ratio of phosphorylated S6 related to total S6 protein: 0.30
[2]
  ratio of phosphorylated Akt related to total Akt: 0.40
